3 compounds from publication PMC2064570 (The Journal of Cell Biology, 2006) can be followed below.

Assay [1] has as its target T1, TbPTP1 (Trypanosoma brucei, UniProt Q38AT7).
T1 sequence (Q38AT7 1-306): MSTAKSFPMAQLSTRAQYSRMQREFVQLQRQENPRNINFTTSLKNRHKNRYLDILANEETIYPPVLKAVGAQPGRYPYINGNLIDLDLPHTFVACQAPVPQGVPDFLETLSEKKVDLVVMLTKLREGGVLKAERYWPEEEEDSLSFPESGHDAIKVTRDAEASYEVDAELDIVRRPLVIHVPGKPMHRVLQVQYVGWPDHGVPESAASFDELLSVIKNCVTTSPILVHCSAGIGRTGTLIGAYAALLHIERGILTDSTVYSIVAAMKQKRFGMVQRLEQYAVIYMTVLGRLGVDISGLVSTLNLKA
In words: malachite green phosphate release, Lineweaver-Burk. In kind it is biochemical. The following applies: 50 mM Hepes, 150 mM NaCl, pH 7.0, 37 °C.

For assay [2], the target named is T1, TbPTP1. In words: pNPP hydrolysis inhibition. The class given is biochemical. Conditions: read-out: % inhibition at 10 μM.
The target of assay [3] is T1, TbPTP1. Conditions: pNPP or pEGFR peptide as substrate.

A value given as a limit tells only on which side of the number the result lay.

With `N[C@@H](COP(=O)(O)O)C(=O)O` [pSer], in assay [1], the Km result was “phospho-Tyr (pTyr), and phospho-Ser (pSer)”. Consider `CCc1oc2cc(S(=O)(=O)Nc3ccc(S(=O)(=O)Nc4nccs4)cc3)ccc2c1C(=O)c1cc(Br)c(O)c(Br)c1` [BZ3, 3-(3,5-Dibromo-4-hydroxy-benzoyl)-2-ethyl-benzofuran-6-sulfonicacid-(4-(thiazol-2-ylsulfamyl)-phenyl)-amide], for which the inhibition (as a rule, the drop in the measured response relative to a control, in per cent) at 10 µM in assay [2] is above 50%. With `[O]=[V]([OH])([OH])[OH]` [sodium orthovanadate], the % inhibition (as a rule, the drop in the measured response relative to a control, in per cent) at 1 mM in assay [3] is recorded as 90%.
